Experimental data from patent publication US10294202B2, “Pyrrolidinones as herbicides” (FMC Corporation, priority 2013, dated 2019).
Read-outs that look alike come from different tables or passages of the source.

Experiments:
[1] = tested on: barnyardgrass; test: Test A pre-/postemergence herbicide test; assay type: in vivo, Echinochloa crus-galli; details: for pest or weed control at 1000 g/ha: Echinochloa crus-galli, 240 h, 1000 g ai/ha, read-out: Plant response rating, Barnyardgrass
Text: (§1) Seeds of plant species selected from bamyardgrass (Echinochloa crus-galli), kochia (Kochia scoparia), ragweed (common ragweed, Ambrosia elatior), ryegrass, Italian (Italian ryegrass, Lolium multiflorum), crabgrass, large (large crabgrass Digitaria sanguinalis), giant foxtail (Setaria faberii), morningglory (Ipomoea spp.), pigweed (Amaranthus retroflexus), velvetleaf (Abutilon theophrasti), wheat (Triticum aestivum), and corn (Zea mays) were planted into a blend of loam soil and sand and treated preemergence with a directed soil spray using test chemicals formulated in a non-phytotoxic solvent mixture which included a surfactant. At the same time, plants selected from these crop and weed species and also blackgrass (Alopecurus myosuroides), and galium (catchweed bedstraw, Galium aparine) were planted in pots containing the same blend of loam soil and sand and treated with postemergence applications of test chemicals formulated in the same manner. Plants ranged in height from 2 to 10 cm and were in the one- to two-leaf stage for the postemergence treatment. Treated plants and untreated controls were maintained in a greenhouse for approximately 10 days, after which time all treated plants were compared to untreated controls and visually evaluated for injury. Plant response ratings, summarized in Table A, are based on a 0 to 100 scale where 0 is no effect and 100 is complete control. A dash (-) response means no test result.

[2] = tested on: kochia; test: Test A pre-/postemergence herbicide test; assay type: in vivo, Kochia scoparia; details: for Plant response rating, Kochia: 0 to 100 scale
Text: as §1

[3] = tested on: ragweed; test: Test A pre-/postemergence herbicide test; assay type: in vivo, Ambrosia elatior; details: for Plant response rating, Ragweed: 0 to 100 scale
Text: as §1

[4] = tested on: ryegrass, Italian; test: Test A pre-/postemergence herbicide test; assay type: in vivo, Lolium multiflorum; details: for Plant response rating, Ryegrass, Italian: 0 to 100 scale
Text: as §1

[5] = tested on: giant foxtail; test: Test A pre-/postemergence herbicide test; assay type: in vivo, Setaria faberii; details: for pest or weed control at 1000 g/ha: Setaria faberi, 240 h, 1000 g ai/ha, read-out: Plant response rating, Foxtail, Giant
Text: as §1

[6] = tested on: pigweed; test: Test A pre-/postemergence herbicide test; assay type: in vivo, Amaranthus retroflexus; details: for pest or weed control at 1000 g/ha: Amaranthus retroflexus, 240 h, 1000 g ai/ha, read-out: Plant response rating, Pigweed
Text: as §1

[7] = tested on: wheat; test: Test A pre-/postemergence herbicide test; assay type: in vivo, Triticum aestivum; details: for plant injury at 1000 g/ha: Triticum aestivum, 240 h, 1000 g ai/ha, read-out: Plant response rating, Wheat
Outline: (§2)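 Formulated compound (non-phytotoxic solvent, surfactant) sprayed pre- onto soil of seeded loam/sand pots or post- onto seedlings at 1–2 leaves; ~10 d greenhouse; 0–100 visual control rating versus untreated.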

[8] = tested on: corn; test: Test A pre-/postemergence herbicide test; assay type: in vivo, Zea mays; details: for Corn plant response rating (crop injury, 0 = no effect, 100 = complete kill) at 1000 g/ha: Zea mays, 240 h, 1000 g ai/ha
Text: as §1

[9] = tested on: blackgrass; test: Test A postemergence herbicide test; assay type: in vivo, Alopecurus myosuroides; details: for Plant response rating, Blackgrass: 125 g ai/ha, 0 to 100 scale, 0 is no effect, 100 is complete control; for Blackgrass plant response rating (0 to 100 scale, 0 is no effect, 100 is complete control): 500 g ai/ha
Text: (§3) At the same time, plants selected from these crop and weed species and also blackgrass (Alopecurus myosuroides), and galium (catchweed bedstraw, Galium aparine) were planted in pots containing the same blend of loam soil and sand and treated with postemergence applications of test chemicals formulated in the same manner. Plants ranged in height from 2 to 10 cm and were in the one- to two-leaf stage for the postemergence treatment. Treated plants and untreated controls were maintained in a greenhouse for approximately 10 days, after which time all treated plants were compared to untreated controls and visually evaluated for injury. Plant response ratings, summarized in Table A, are based on a 0 to 100 scale where 0 is no effect and 100 is complete control. A dash (-) response means no test result.

[10] = tested on: galium; test: Test A postemergence herbicide test; assay type: in vivo, Galium aparine; details: for Plant response rating, Galium: 125 g ai/ha, 0 to 100 scale, 0 is no effect, 100 is complete control; for Galium plant response rating (0 to 100 scale, 0 is no effect, 100 is complete control): 500 g ai/ha
Text: as §3

[11] = tested on: crabgrass, large; test: Test A pre-/postemergence herbicide test; assay type: in vivo, Digitaria sanguinalis; details: for pest or weed control at 1000 g/ha: Digitaria sanguinalis, 240 h, 1000 g ai/ha, read-out: Plant response rating, Crabgrass, Large
Outline: as §2

[12] = tested on: morningglory; test: Test A pre-/postemergence herbicide test; assay type: in vivo, Ipomoea spp.; details: for pest or weed control at 1000 g/ha: Ipomoea, 240 h, 1000 g ai/ha, read-out: Plant response rating, Morningglory
Outline: as §2

[13] = tested on: velvetleaf; test: Test A pre-/postemergence herbicide test; assay type: in vivo, Abutilon theophrasti; details: for pest or weed control at 1000 g/ha: Abutilon theophrasti, 240 h, 1000 g ai/ha, read-out: Plant response rating, Velvetleaf
Text: as §1

[14] = 125 g ai/ha, visual rating, 0 to 100 scale, 0 no effect, 100 complete control, approximately 10 days, preemergence
[15] = Postemergence, 125 g ai/ha, 0 to 100 scale, 0 is no effect, 100 is complete control
[16] = preemergence, 500 g ai/ha, 0 to 100 scale (0 no effect, 100 complete control)
[17] = 125 g ai/ha, visual rating, 0 no effect, 100 complete control, approximately 10 days, preemergence
[18] = Postemergence, 125 g ai/ha, 0 is no effect, 100 is complete control
[19] = preemergence, 500 g ai/ha, 0 is no effect and 100 is complete control
[20] = preemergence, 500 g ai/ha, 0 to 100 scale
[21] = preemergence, 500 g ai/ha, 0 to 100 scale, 0 is no effect and 100 is complete control
[22] = post-emergence, Postemergence, 0 to 100 scale (0 no effect, 100 complete control)
[23] = pre-emergence, Preemergence, visual rating on 0 to 100 scale (0 no effect, 100 complete control), approx. 10 days
[24] = Postemergence, 125 g ai/ha, 0 to 100 scale, 0 no effect, 100 complete control
[25] = Postemergence, 500 g ai/ha, 0 to 100 scale (0 no effect, 100 complete control)
[26] = Preemergence, 125 g ai/ha, visual rating on 0 to 100 scale (0 no effect, 100 complete control)

O=C1NCC(c2cc(F)cc(F)c2)C1C(=O)Nc1cccc(F)c1F (racemic) [Compound 157]
30: Kochia plant response rating (0 to 100 scale, 0 is no effect, 100 is complete control) ([2]; Postemergence, 500 g ai/ha) | Plant response rating, Ragweed [3, 17] | Plant response rating, Ryegrass, Italian [4, 17] | Plant response rating, Ryegrass, Italian [4, 18] | Ryegrass, Italian plant response rating (0 to 100 scale, 0 is no effect, 100 is complete control) ([4]; Postemergence, 500 g ai/ha) | Pigweed plant response rating (0 to 100 scale, 0 is no effect, 100 is complete control) ([6]; Postemergence, 500 g ai/ha) | Plant response rating, Blackgrass [9] | Blackgrass plant response rating (0 to 100 scale, 0 is no effect, 100 is complete control) [9]
50: Plant response rating, Kochia [2, 17] | Plant response rating, Ragweed [3, 19] | Plant response rating, Pigweed [6, 21] | Plant response rating, Corn [8, 15]
20: Plant response rating, Kochia [2, 18] | Plant response rating, Ragweed [3, 18]
60: Plant response rating, Ryegrass, Italian [4, 19]
40: Ragweed plant response rating (0 to 100 scale, 0 is no effect, 100 is complete control) ([3]; Postemergence, 500 g ai/ha) | Plant response rating, Wheat [7, 15] | Plant response rating, Galium [10] | Galium plant response rating (0 to 100 scale, 0 is no effect, 100 is complete control) [10]
0: Plant response rating, Pigweed [6, 14] | Plant response rating, Pigweed [6, 15]
80: Barnyardgrass plant response rating (0 to 100 scale, 0 is no effect, 100 is complete control) ([1]; Postemergence, 500 g ai/ha) | Plant response rating, Foxtail, Giant [5, 15] | Foxtail, Giant plant response rating (0 to 100 scale, 0 is no effect, 100 is complete control) ([5]; Postemergence, 500 g ai/ha) | Corn plant response rating (0 to 100 scale, 0 is no effect, 100 is complete control) ([8]; Postemergence, 500 g ai/ha)
90: Plant response rating, Barnyardgrass [1, 14] | Plant response rating, Barnyardgrass [1, 16] | Plant response rating, Foxtail, Giant [5, 14] | Plant response rating, Foxtail, Giant [5, 20]
70: Plant response rating, Barnyardgrass [1, 15] | Plant response rating, Kochia [2, 19] | Wheat plant response rating (0 to 100 scale, 0 is no effect, 100 is complete control) ([7]; Postemergence, 500 g ai/ha)

O=C1NCC(c2ccc(OC(F)(F)C(F)F)cc2)C1C(=O)Nc1cccc(F)c1F (racemic) [Compound 172]
30: Plant response rating, Kochia [2, 17] | Plant response rating, Kochia [2, 19] | Foxtail, Giant plant response rating (0 to 100 scale, 0 is no effect, 100 is complete control) ([5]; Postemergence, 500 g ai/ha) | Plant response rating, Foxtail, Giant [5, 20]
0: Plant response rating, Barnyardgrass [1, 14] | Plant response rating, Barnyardgrass [1, 15] | Plant response rating, Kochia [2, 18] | Kochia plant response rating (0 to 100 scale, 0 is no effect, 100 is complete control) ([2]; Postemergence, 500 g ai/ha) | Plant response rating, Ragweed [3, 17] | Plant response rating, Ragweed [3, 18] | Ragweed plant response rating (0 to 100 scale, 0 is no effect, 100 is complete control) ([3]; Postemergence, 500 g ai/ha) | Plant response rating, Ragweed [3, 19] | Plant response rating, Ryegrass, Italian [4, 17] | Plant response rating, Ryegrass, Italian [4, 18] | Ryegrass, Italian plant response rating (0 to 100 scale, 0 is no effect, 100 is complete control) ([4]; Postemergence, 500 g ai/ha) | Plant response rating, Ryegrass, Italian [4, 19] | Plant response rating, Foxtail, Giant [5, 15] | Plant response rating, Pigweed [6, 14] | Plant response rating, Pigweed [6, 15] | Pigweed plant response rating (0 to 100 scale, 0 is no effect, 100 is complete control) ([6]; Postemergence, 500 g ai/ha) | Plant response rating, Pigweed [6, 21] | Plant response rating, Wheat [7, 15] | Wheat plant response rating (0 to 100 scale, 0 is no effect, 100 is complete control) ([7]; Postemergence, 500 g ai/ha) | Plant response rating, Corn [8, 15] | Corn plant response rating (0 to 100 scale, 0 is no effect, 100 is complete control) ([8]; Postemergence, 500 g ai/ha) | Plant response rating, Blackgrass [9] | Blackgrass plant response rating (0 to 100 scale, 0 is no effect, 100 is complete control) [9] | Plant response rating, Galium [10] | Galium plant response rating (0 to 100 scale, 0 is no effect, 100 is complete control) [10]
20: Barnyardgrass plant response rating (0 to 100 scale, 0 is no effect, 100 is complete control) ([1]; Postemergence, 500 g ai/ha) | Plant response rating, Barnyardgrass [1, 16] | Plant response rating, Foxtail, Giant [5, 14]

O=C(Nc1ccccc1F)C1C(=O)N(O)CC1c1ccc(F)c(F)c1 (centres unmarked) [Compound 44, 4-(3,4-difluorophenyl)-N-(2-fluorophenyl)-1-hydroxy-2-oxo-3-pyrrolidinecarboxamide]
40%: pest or weed control at 1000 g/ha [1, 23]
30%: pest or weed control at 1000 g/ha [5, 22]
0%: pest or weed control at 1000 g/ha [12, 22] | pest or weed control at 1000 g/ha [12, 23] | pest or weed control at 1000 g/ha [6, 22] | pest or weed control at 1000 g/ha [6, 23] | pest or weed control at 1000 g/ha [13, 22] | pest or weed control at 1000 g/ha [13, 23] | plant injury at 1000 g/ha [7, 22] | plant injury at 1000 g/ha [7, 23] | Corn plant response rating (crop injury, 0 = no effect, 100 = complete kill) at 1000 g/ha [8, 22] | Corn plant response rating (crop injury, 0 = no effect, 100 = complete kill) at 1000 g/ha [8, 23]
50%: pest or weed control at 1000 g/ha [11, 22]
70%: pest or weed control at 1000 g/ha [5, 23]
60%: pest or weed control at 1000 g/ha [1, 22]
90%: pest or weed control at 1000 g/ha [11, 23]

O=C1NCC(c2ccccc2)C1(Br)C(=O)Nc1ccc(Br)cc1F (centres unmarked) [Compound 94]
0: Plant response rating, Barnyardgrass [1, 24] | Plant response rating, Barnyardgrass [1, 25] | Barnyardgrass plant response rating [1, 26] | Plant response rating, Barnyardgrass [1, 16] | Plant response rating, Crabgrass, Large [11, 24] | Plant response rating, Crabgrass, Large [11, 25] | Crabgrass, Large plant response rating [11, 26] | Plant response rating, Foxtail, Giant [5, 24] | Plant response rating, Foxtail, Giant [5, 25] | Foxtail, Giant plant response rating [5, 26] | Plant response rating, Foxtail, Giant [5, 20] | Plant response rating, Morningglory [12, 24] | Plant response rating, Morningglory [12, 25] | Morningglory plant response rating [12, 26] | Plant response rating, Morningglory [12, 20] | Plant response rating, Pigweed [6, 24] | Plant response rating, Pigweed [6, 25] | Pigweed plant response rating [6, 26] | Plant response rating, Velvetleaf [13, 24] | Plant response rating, Velvetleaf [13, 25] | Velvetleaf plant response rating [13, 26] | Plant response rating, Wheat [7, 24] | Plant response rating, Wheat [7, 25] | Wheat plant response rating [7, 26] | Plant response rating, Wheat [7, 20] | Plant response rating, Corn [8, 24] | Plant response rating, Corn [8, 25] | Corn plant response rating [8, 26] | Plant response rating, Corn [8, 20]
50: Plant response rating, Crabgrass, Large [11, 20]
